Assay results from patent publication US11000033B2, “Ketone or oxime compound, and herbicide” (NISSAN CHEMICAL CORPORATION, priority 2014, dated 2021).

Assays:
Assay type in all cases: in vivo
[1] = test system: Monochoria vaginalis; experiment: Test Example 1: herbicidal activity, application before weed generation in submerged conditions (symbol C); details: application herbicide amount 320 g/ha
Outline: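 Greenhouse growth at 25–30 °C lasted 3 weeks after treatment, when each weed was graded 0–5 by herbicidal ratio. Treatment was a diluted emulsion applied to the water surface of 4 cm-submerged alluvial soil on the sowing day.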

[2] = test system: Echinochloa oryzacola Vasing.; experiment: Test Example 2: herbicidal activity, application during weed generation in submerged conditions (symbol A); details: Table 23; application herbicide amount 320 g/ha; grade 0-5 by criteria of Test Example 1
Outline: (§1)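 Treatment timing was the one- to two-leaf stage, with diluted emulsifiable compound dropped onto the paddy water (depth 4 cm) over alluvial soil. All three species grew from a mixed sowing in a 25° C. to 30° C. greenhouse. Injury was judged by eye 3 weeks on.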

[3] = test system: Scirpus juncoides; experiment: Test Example 2: herbicidal activity, application during weed generation in submerged conditions (symbol B); details: Table 23; application herbicide amount 320 g/ha; grade 0-5 by criteria of Test Example 1
Outline: as §1

[4] = test system: Monochoria vaginalis; experiment: Test Example 2: herbicidal activity, application during weed generation in submerged conditions (symbol C); details: Table 23; application herbicide amount 320 g/ha; grade 0-5 by criteria of Test Example 1
Outline: as §1

[5] = test system: Digitaria ciliaris; experiment: Test Example 4: herbicidal effect by soil treatment (symbol F); details: application herbicide amount 320 g/ha
Outline: (§2)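 Seeds were sown in sterilized diluvial soil, covered with about 1.5 cm of soil, and the soil surface was sprayed with a water-diluted emulsion of the compound at a predetermined rate. Plants grew in a greenhouse at 25° C. to 30° C.; effects were scored visually 3 weeks after application.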

[6] = test system: Echinochloa crus-galli var. crus-galli; experiment: Test Example 4: herbicidal effect by soil treatment (symbol H); details: application herbicide amount 320 g/ha
Outline: as §2

[7] = test system: Avena fatua; experiment: Test Example 4: herbicidal effect by soil treatment (symbol I); details: application herbicide amount 320 g/ha
Outline: as §2

[8] = test system: Apera spica-venti; experiment: Test Example 4: herbicidal effect by soil treatment (symbol L); details: application herbicide amount 320 g/ha
Outline: as §2

[9] = test system: Abutilon theophrasti; experiment: Test Example 4: herbicidal effect by soil treatment (symbol M); details: application herbicide amount 320 g/ha
Outline: as §2

[10] = test system: Chenopodium album; experiment: Test Example 4: herbicidal effect by soil treatment (symbol O); details: application herbicide amount 320 g/ha
Outline: as §2

[11] = test system: Galium spurium; experiment: Test Example 4: herbicidal effect by soil treatment (symbol Q); details: application herbicide amount 320 g/ha
Outline: as §2

[12] = test system: corn; experiment: Test Example 4: effect on crop by soil treatment (symbol c); details: application herbicide amount 320 g/ha
Outline: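 Diluvial soil (sterilized) in boxes; seeds placed spot-wise alongside weed species; ~1.5 cm covering soil. Greenhouse, 25–30° C.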

[13] = test system: rapeseed; experiment: Test Example 4: effect on crop by soil treatment (symbol g); details: application herbicide amount 320 g/ha
Outline: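 Crop seed is sown in spots together with several weed species in a box of sterilized diluvial soil. It is covered by about 1.5 cm of soil and kept in a greenhouse held between 25° C. and 30° C.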

[14] = test system: Lolium multiflorum Lam.; experiment: Test Example 5: herbicidal effect by foliage application, plastic box (symbol K); details: 320 g/ha, 3 weeks after application
Outline: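 Leaf-applied emulsion, water-diluted to a preset herbicide dose, on two-week-old seedlings raised in a 25° C. to 30° C. greenhouse; injury rated at 3 weeks using earlier criteria.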

[15] = test system: corn; experiment: Test Example 5: effect on crop by foliage application, plastic box (symbol c); details: 320 g/ha, 3 weeks after application
Outline: (§3)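 Plants were raised from seed in a greenhouse (25° C. to 30° C.) after sowing in a plastic box of sterilized diluvial soil.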

[16] = test system: soybean; experiment: Test Example 5: effect on crop by foliage application, plastic box (symbol d); details: 320 g/ha, 3 weeks after application
Outline: as §3

[17] = test system: rice plant; experiment: Test Example 5: effect on crop by foliage application, plastic box (symbol b); details: 320 g/ha, 3 weeks after application
Outline: as §3

Structure (SMILES) | Herbicidal effect grade, C: Monochoria vaginalis [1] | Herbicidal effect grade, A: Echinochloa oryzacola Vasing. [2] | Herbicidal effect grade, B: Scirpus juncoides [3] | Herbicidal effect grade, C: Monochoria vaginalis [4] | F: Digitaria ciliaris, herbicidal effect grade [5] | H: Echinochloa crus-galli var. crus-galli, herbicidal effect grade [6] | I: Avena fatua, herbicidal effect grade [7] | L: Apera spica-venti, herbicidal effect grade [8] | M: Abutilon theophrasti, herbicidal effect grade [9] | O: Chenopodium album, herbicidal effect grade [10] | Q: Galium spurium, herbicidal effect grade [11] | c: corn, effect on crop grade [12] | g: rapeseed, effect on crop grade [13] | K: Lolium multiflorum Lam., herbicidal effect grade [14] | c: corn, effect on crop grade [15] | d: soybean, effect on crop grade [16] | b: directly sowed rice plant, effect on crop grade [17]
Cc1cc(C)c(C2=C(O)CC(CC(=O)C3CCCCC3)C2=O)c(C)c1 (stereo not shown) [2-030] | 0 (Herbicidal ratio of 5% or lower (almost no effect)) | 3 (Herbicidal ratio of 40% or higher and lower than 70%) | 0 (Herbicidal ratio of 5% or lower (almost no effect)) | 0 (Herbicidal ratio of 5% or lower (almost no effect)) | 4 (Herbicidal ratio of 70% or higher and lower than 90%) | 1 (Herbicidal ratio of 5% or higher and lower than 20%) | 0 (Herbicidal ratio of 5% or lower (almost no effect)) | 4 (Herbicidal ratio of 70% or higher and lower than 90%) | 0 (Herbicidal ratio of 5% or lower (almost no effect)) | 0 (Herbicidal ratio of 5% or lower (almost no effect)) | 0 (Herbicidal ratio of 5% or lower (almost no effect)) | 1 (Herbicidal ratio of 5% or higher and lower than 20%) | 0 (Herbicidal ratio of 5% or lower (almost no effect)) | 5 (Herbicidal ratio of 90% or more (almost completely withered)) | 2 (Herbicidal ratio of 20% or higher and lower than 40%) | 0 (Herbicidal ratio of 5% or lower (almost no effect)) | 5 (Herbicidal ratio of 90% or more (almost completely withered))
CCC(=O)CC1CC(O)=C(c2c(C)cc(C)cc2C)C1=O (stereo not shown) [2-006] | 3 (Herbicidal ratio of 40% or higher and lower than 70%) | 5 (Herbicidal ratio of 90% or more (almost completely withered)) | 2 (Herbicidal ratio of 20% or higher and lower than 40%) | 2 (Herbicidal ratio of 20% or higher and lower than 40%) | 5 (Herbicidal ratio of 90% or more (almost completely withered)) | 5 (Herbicidal ratio of 90% or more (almost completely withered)) | 3 (Herbicidal ratio of 40% or higher and lower than 70%) | 5 (Herbicidal ratio of 90% or more (almost completely withered)) | 4 (Herbicidal ratio of 70% or higher and lower than 90%) | 0 (Herbicidal ratio of 5% or lower (almost no effect)) | 0 (Herbicidal ratio of 5% or lower (almost no effect)) | 2 (Herbicidal ratio of 20% or higher and lower than 40%) | 4 (Herbicidal ratio of 70% or higher and lower than 90%) | 5 (Herbicidal ratio of 90% or more (almost completely withered)) | 0 (Herbicidal ratio of 5% or lower (almost no effect)) | 0 (Herbicidal ratio of 5% or lower (almost no effect)) | 4 (Herbicidal ratio of 70% or higher and lower than 90%)
CCC(C)C(=O)CC1CC(O)=C(c2c(C)cc(C)cc2C)C1=O (stereo not shown) [2-024] | 0 (Herbicidal ratio of 5% or lower (almost no effect)) | 1 (Herbicidal ratio of 5% or higher and lower than 20%) | 0 (Herbicidal ratio of 5% or lower (almost no effect)) | 0 (Herbicidal ratio of 5% or lower (almost no effect)) | 5 (Herbicidal ratio of 90% or more (almost completely withered)) | 4 (Herbicidal ratio of 70% or higher and lower than 90%) | 0 (Herbicidal ratio of 5% or lower (almost no effect)) | 0 (Herbicidal ratio of 5% or lower (almost no effect)) | 0 (Herbicidal ratio of 5% or lower (almost no effect)) | 0 (Herbicidal ratio of 5% or lower (almost no effect)) | 0 (Herbicidal ratio of 5% or lower (almost no effect)) | 0 (Herbicidal ratio of 5% or lower (almost no effect)) | 0 (Herbicidal ratio of 5% or lower (almost no effect)) | 5 (Herbicidal ratio of 90% or more (almost completely withered)) | 3 (Herbicidal ratio of 40% or higher and lower than 70%) | 0 (Herbicidal ratio of 5% or lower (almost no effect)) | 5 (Herbicidal ratio of 90% or more (almost completely withered))
CCc1cc(-n2cc(Cl)cn2)cc(C)c1C1=C(O)CC(CC(C)=NOC)C1=O (mixture of isomers) [6-005] | 3 (Herbicidal ratio of 40% or higher and lower than 70%) | 5 (Herbicidal ratio of 90% or more (almost completely withered)) | 2 (Herbicidal ratio of 20% or higher and lower than 40%) | 3 (Herbicidal ratio of 40% or higher and lower than 70%) | 5 (Herbicidal ratio of 90% or more (almost completely withered)) | 5 (Herbicidal ratio of 90% or more (almost completely withered)) | 4 (Herbicidal ratio of 70% or higher and lower than 90%) | 5 (Herbicidal ratio of 90% or more (almost completely withered)) | 0 (Herbicidal ratio of 5% or lower (almost no effect)) | 0 (Herbicidal ratio of 5% or lower (almost no effect)) | 0 (Herbicidal ratio of 5% or lower (almost no effect)) | 3 (Herbicidal ratio of 40% or higher and lower than 70%) | 0 (Herbicidal ratio of 5% or lower (almost no effect)) | 5 (Herbicidal ratio of 90% or more (almost completely withered)) | 5 (Herbicidal ratio of 90% or more (almost completely withered)) | 4 (Herbicidal ratio of 70% or higher and lower than 90%) | 5 (Herbicidal ratio of 90% or more (almost completely withered))
CON=C(C)CC1CC(O)=C(c2c(C)cc(-c3ccc(C(F)(F)F)cc3)cc2C)C1=O (mixture of isomers) [6-016] | 0 (Herbicidal ratio of 5% or lower (almost no effect)) | 3 (Herbicidal ratio of 40% or higher and lower than 70%) | 0 (Herbicidal ratio of 5% or lower (almost no effect)) | 0 (Herbicidal ratio of 5% or lower (almost no effect)) | 5 (Herbicidal ratio of 90% or more (almost completely withered)) | 4 (Herbicidal ratio of 70% or higher and lower than 90%) | 0 (Herbicidal ratio of 5% or lower (almost no effect)) | 5 (Herbicidal ratio of 90% or more (almost completely withered)) | 0 (Herbicidal ratio of 5% or lower (almost no effect)) | 0 (Herbicidal ratio of 5% or lower (almost no effect)) | 0 (Herbicidal ratio of 5% or lower (almost no effect)) | 0 (Herbicidal ratio of 5% or lower (almost no effect)) | 0 (Herbicidal ratio of 5% or lower (almost no effect)) | 5 (Herbicidal ratio of 90% or more (almost completely withered)) | 5 (Herbicidal ratio of 90% or more (almost completely withered)) | 0 (Herbicidal ratio of 5% or lower (almost no effect)) | 5 (Herbicidal ratio of 90% or more (almost completely withered))
